Results from patent US11426473B2, “Nitrogen-containing compound or salt thereof, or metal complex thereof” (FUJIFILM Corporation, priority 2013, dated 2022).

Tests used:
[1] = tested on: U87MG cells subcutaneous tumor; assay: Imaging of integrin-expressing tumor by PET; format: in vivo; conditions: at the time of anatomy (48 hours after administration), 4.8 MBq/mouse tail vein
Protocol: U87MG cells were subcutaneously transplanted at 1×10^7 cells/mouse to the right flank of Balb/cAJcl-nu/nu (CLEA Japan, Inc. or Japan SLC, Inc., male, 6 to 9 weeks old). After 2 weeks, the radiolabeled compound [^64Cu]-(P2) was administered at 4.8 MBq/mouse to the tail veins of mice whose tumors became 250 to 650 mm^3. After 1, 4, 24, and 48 hours, the images were taken in microPET/CT (Inveon, Siemens AG) under isoflurane anesthesia. After the imaging at 48 hours after administration, the mice were euthanized by the collection of the whole blood from the postcava under deep anesthesia with isoflurane, followed by tumor extraction. The weights of the tumors were measured, and the radioactivity was measured using a gamma counter to calculate the concentration of radioactivity in the tumors (% ID/g). In the same way as above, [^64Cu]-(Aa7), [^64Cu]-(Ab9-a), and [^64Cu]-(Ab9-b) were imaged. However, the concentration of radioactivity in the tumors was not calculated. The tumor accumulation was confirmed for all of the compounds 1 hour after administration, and the tumors were visualized up to 48 hours later. […] The concentration of radioactivity in the tumors was 5.6% ID/g at the time of anatomy (48 hours after administration).

[2] = Absorbed doses in each organ in humans calculated with OLINDA/EXM 1.0 from monkey organ distribution; format: in vivo; conditions: calculated with OLINDA/EXM 1.0 from monkey imaging with [111In]-(P2)
Protocol: (§1) Blood kinetic parameters were calculated with OLINDA/EXM 1.0 from the blood concentration of radioactivity by blood collection over time from a cynomolgus monkey using [^111In]-(P2). Also, absorbed doses in each organ in the case of administration to humans were calculated with OLINDA/EXM 1.0 from organ distribution by imaging using [^111In]-(P2). The radiolabeled compound [^111In]-(P2) (98 MBq/[…]) was administered to a cynomolgus monkey (Hamri Co., Ltd., male, 3 years old, 3.4 kg) under anesthesia. After the administration, blood collection and imaging with a gamma camera were performed over time. The blood collection was carried out 10 minutes, 30 minutes, 60 minutes, 2 hours, 4 hours, 5 hours, 6 hours, 24 hours, 48 hours, 72 hours, and 144 hours after administration. The imaging was carried out 1, 2, 4, 6, 24, 48, 72, and 144 hours after administration with a gamma camera (Symbia, Siemens AG) to take planar images. The anesthesia was carried out using 20 mg/kg ketamine before administration of [^111In]-(P2) and maintained by inhalation anesthesia (2 to 3% isoflurane, 5 to 8 L/min) until the completion of the imaging at 6 hours after administration. At or after 24 hours after administration, blood collection and imaging were performed by the introduction of 20 mg/kg ketamine and 2 mg/kg xylazine. […] The blood kinetic parameters are shown below.

[3] = tested on: U87MG cells subcutaneous tumor; assay: Concentration of radioactivity in tumor of labeled compounds (Test Example 4); format: in vivo, mouse; conditions: tail vein, 111In 740 kBq, 64Cu and 90Y 500 kBq
Protocol: U87MG cells were subcutaneously transplanted at 1×10^7 cells/mouse to the right flank of Balb/cAJcl-nu/nu (CLEA Japan, Inc. or Japan SLC, Inc., 6 to 9 weeks old). After 2 to 3 weeks, the mice were divided into groups each involving 3 individuals per point in time when their tumors became 200 to 500 mm^3. The ^111In-labeled compound (740 kBq) was administered to the tail veins of the mice.
After a given time, the animals were sacrificed to extract their tumors. The weights of the tumors were measured, and the radioactivity was measured using a gamma counter to calculate the concentration of radioactivity in the tumors (% ID/g). In the same way as above, the concentration of radioactivity in the tumors (% ID/g) was calculated for the ^64Cu-labeled compound (500 kBq) and the ^90Y-labeled compound (500 kBq).

[4] = Radiochemical purity after standing at room temperature; format: physicochemical
Protocol: To a mixed solution of compound (P2) (8.5 μg) and a 0.2 mol/L sodium acetate buffer solution (pH 4.0) (1.5 mL), a [^111In] indium chloride solution (80 MBq, 100 μL) was added. The mixture was heated at 100° C. for 15 minutes and then left at room temperature for 5 minutes to obtain radiolabeled compound [^111In]-(P2). […] Its radiochemical purity was 95% or more both immediately after preparation and after standing at room temperature for 24 hours.
To a mixed solution of compound (P2) (79 μg), gentisic acid (1.8 mg), a 0.6 mol/L sodium acetate buffer solution (pH 4.0, 120 μL), and a 0.4 mol/L aqueous sodium hydroxide solution (24 μL), a [^90Y] yttrium chloride solution (700 MBq, 240 μL) was added. The mixture was heated at 100° C. for 20 minutes and then left at room temperature for 5 minutes to obtain radiolabeled compound [^90Y]-(P2). […] Its radiochemical purity was 95% or more both immediately after preparation and after standing at room temperature for 24 hours.
To a mixed solution of compound (P2) ([…]) and a 0.2 mol/L sodium acetate buffer solution (pH 4.0, 219 μL), a [^64Cu] copper chloride solution (pH 5, 35 MBq, 55 μL) was added. The mixture was heated at 100° C. for 15 minutes and then left at room temperature for 5 minutes to obtain radiolabeled compound [^64Cu]-(P2). […] Its radiochemical purity was 90% or more both immediately after preparation and after standing at room temperature for 22 hours.
To a mixed solution of compound (Aa7) (4.2 μg), gentisic acid (1 mg), and a 0.2 mol/L sodium acetate buffer solution (pH 4.0) (5.0 μL), [^64Cu] copper chloride in a 0.2 mol/L sodium acetate buffer solution (pH 4.0) (40 MBq, 155 μL) was added. The mixture was heated at 100° C. for 15 minutes and then left at room temperature for 5 minutes to obtain radiolabeled compound [^64Cu]-(Aa7). […] Its radiochemical purity was 90% or more both immediately after preparation and after standing at room temperature for 24 hours.

[5] = tested on: SK-MEL-28 (human melanoma) subcutaneous tumor; assay: Tumor accumulation of [111In]-(A8), tissue extraction and radioactivity measurement, SK-MEL-28; format: in vivo, mouse; conditions: 740 kBq tail vein
Protocol: (§2) SK-MEL-28 (human melanoma), A375 (human melanoma), A498 (human renal cell cancer), Caki-2 (human renal cell cancer), HCT116, U87MG, and T98G cells were studied as follows: the cells of each line were cultured and subcutaneously transplanted at 1×10^7 cells/mouse to the right flank of Balb/cAJcl-nu/nu (CLEA Japan, Inc., male, 6 to 8 weeks old). The mice were raised until their tumor volumes reached 85 to 1,075 mm^3. Then, the mice were allocated at the time of anatomy to groups each involving 3 individuals so as to prevent the tumor volumes from disproportioning among the groups. Then, the radiolabeled compound [^111In]-(A8) (740 kBq) was administered to the tail veins of the mice. The animals were sacrificed at the time of anatomy to extract their tumors. The weights of the tumors were measured, and then, the radioactivity was measured using a gamma counter to calculate the concentration of radioactivity in the tumors (% ID/g: % injected dose/g).

[6] = tested on: A375 (human melanoma) subcutaneous tumor; assay: Tumor accumulation of [111In]-(A8), tissue extraction and radioactivity measurement, A375; format: in vivo, mouse; conditions: 740 kBq tail vein
Protocol: as §2

[7] = tested on: U87MG (human glioblastoma) subcutaneous tumor; assay: Tumor accumulation of [111In]-(A8), tissue extraction and radioactivity measurement, U87MG; format: in vivo, mouse; conditions: 740 kBq tail vein
Protocol: as §2

[8] = tested on: Caki-2 (human renal cell cancer) subcutaneous tumor; assay: Tumor accumulation of [111In]-(A8), tissue extraction and radioactivity measurement, Caki-2; format: in vivo, mouse; conditions: 740 kBq tail vein
Protocol: as §2

[9] = tested on: T98G (human glioblastoma) subcutaneous tumor; assay: Tumor accumulation of [111In]-(A8), tissue extraction and radioactivity measurement, T98G; format: in vivo, mouse; conditions: 740 kBq tail vein
Protocol: as §2

[10] = tested on: HCT116 (human colorectal cancer) subcutaneous tumor; assay: Tumor accumulation of [111In]-(A8), tissue extraction and radioactivity measurement, HCT116; format: in vivo, mouse; conditions: 740 kBq tail vein
Protocol: as §2

[11] = tested on: A498 (human renal cell cancer) subcutaneous tumor; assay: Tumor accumulation of [111In]-(A8), tissue extraction and radioactivity measurement, A498; format: in vivo, mouse; conditions: 740 kBq tail vein
Protocol: as §2

[12] = Blood kinetic parameters in monkey; format: in vivo; conditions: cynomolgus monkey, blood radioactivity, 98 MBq
Protocol: as §1

[13] = Time-dependent planar imaging of monkey; format: in vivo; conditions: cynomolgus monkey, from administration to 6 hours later, FIG. 9
Protocol: as §1, with “below. […]” for “below.”

[14] = tested on: U87MG cells subcutaneous tumor; assay: Imaging of integrin-expressing tumor with gamma camera; format: in vivo; conditions: 1 MBq/mouse tail vein, 24 hours to 72 hours after administration, FIG. 6
Protocol: U87MG cells were subcutaneously transplanted at 1×10^7 cells/mouse to the right flank of Balb/cAJcl-nu/nu (CLEA Japan, Inc., male, 6 weeks old). After 2 weeks, a dosing solution of the radiolabeled compound [^111In]-(P2) was administered at 1 MBq/mouse to the tail veins of mice whose tumors became 300 to 600 mm^3. 24, 48, and 72 hours after administration, the planar images were taken with a gamma camera (Symbia, Siemens AG) under isoflurane anesthesia. The radioactivity in the tumors (% ID) was calculated by image analysis.

[15] = tested on: U87MG cells intracranial tumor; assay: Imaging of integrin-expressing tumor, intracranial tumor model; format: in vivo; conditions: 1 MBq/mouse tail vein, FIG. 7
Protocol: U87MG cells were intracranially transplanted at 1×10^7 cells/mouse to Balb/cAJcl-nu/nu (CLEA Japan, Inc., male, 6 weeks old) using a tapered needle. After 2 to 4 weeks, a dosing solution of the radiolabeled compound [^111In]-(P2) was administered at 1 MBq/mouse to the tail veins of the mice. 24, 48, and 72 hours after administration, the planar images were taken with a gamma camera (Symbia, Siemens AG) under isoflurane anesthesia (FIG. 7). After the imaging at the final time point, the brain was extracted, and frozen sections were prepared. Several pieces of the tumor sections were contacted with IP plates, and accumulation images were obtained by autoradiography (ARG). The serial sections were stained with hematoxylin-eosin to confirm tumors.

Cc1cc(OCCCC(=O)NCCNC(=O)[C@H](CS(=O)(=O)O)NC(=O)CN2CCN(CC(=O)[O-])CCN(CC(=O)[O-])CCN(CC(=O)O)CC2)cc(C)c1S(=O)(=O)N[C@@H](CNC(=O)CCCCc1ccc2c(n1)NCCC2)C(=O)O.[64Cu+2] [[^64Cu]-(P2)]
concentration of radioactivity in the tumors [1]: 5.6 % ID/g | Absorbed dose, Brain [2]: 0.11 mGy/MBq | Absorbed dose, Kidney [2]: 0.69 mGy/MBq | Absorbed dose, Liver [2]: 0.09 mGy/MBq | Absorbed dose, Lung [2]: 0.08 mGy/MBq | Absorbed dose, Red bone marrow [2]: 0.01 mGy/MBq | Absorbed dose, Small intestine [2]: 0.06 mGy/MBq | Absorbed dose, Whole body [2]: 0.02 mGy/MBq | Concentration of radioactivity in tumor ([3]; 4 hours later): 9.25 % ID/g | Concentration of radioactivity in tumor ([3]; 24 hours later): 8.48 % ID/g | radiochemical purity after standing ([4]; immediately after preparation and after standing at room temperature for 22 hours): ≥ 90%

Cc1cc(OCCCC(=O)NCCNC(=O)C(CS(=O)(=O)O)NC(=O)C(CS(=O)(=O)O)NC(=O)CN2CCN(CC(=O)[O-])CCN(CC(=O)[O-])CCN(CC(=O)[O-])CC2)cc(C)c1S(=O)(=O)NC(CNC(=O)c1ccc(CCc2ccc3c(n2)NCCC3)cc1)C(=O)O.[111In+3] (stereo not shown) [[^111In]-(A8)]
Concentration of radioactivity in tumor ([5]; sk-mel-28, 4 hours later): 2.9 % ID/g | Concentration of radioactivity in tumor ([5]; sk-mel-28, 24 hours later): 4.9 % ID/g | Concentration of radioactivity in tumor ([6]; A375, 4 hours later): 3.7 % ID/g | Concentration of radioactivity in tumor ([6]; A375, 24 hours later): 3.8 % ID/g | Concentration of radioactivity in tumor ([7]; 4 hours later): 12.0 % ID/g | Concentration of radioactivity in tumor ([7]; 24 hours later): 9.3 % ID/g | Concentration of radioactivity in tumor ([8]; caki-2, 4 hours later): 6.4 % ID/g | Concentration of radioactivity in tumor ([8]; caki-2, 24 hours later): 8.5 % ID/g | Concentration of radioactivity in tumor ([9]; 4 hours later): 6.5 % ID/g | Concentration of radioactivity in tumor ([9]; 24 hours later): 6.7 % ID/g | Concentration of radioactivity in tumor ([3]; 4 hours later): 9.48 % ID/g | Concentration of radioactivity in tumor ([3]; 24 hours later): 12.90 % ID/g | Concentration of radioactivity in tumor ([10]; HCT116, 4 hours later): 3.1 % ID/g | Concentration of radioactivity in tumor ([10]; HCT116, 24 hours later): 2.9 % ID/g | Concentration of radioactivity in tumor ([11]; A498, 4 hours later): 13.1 % ID/g | Concentration of radioactivity in tumor ([11]; A498, 24 hours later): 7.9 % ID/g

Cc1cc(OCCCC(=O)NCCNC(=O)[C@H](CS(=O)(=O)O)NC(=O)CN2CCN(CC(=O)[O-])CCN(CC(=O)[O-])CCN(CC(=O)[O-])CC2)cc(C)c1S(=O)(=O)N[C@@H](CNC(=O)CCCCc1ccc2c(n1)NCCC2)C(=O)O.[111In+3] [[^111In]-(P2)]
Absorbed dose, Brain [2]: 0.25 mGy/MBq | Absorbed dose, Kidney [2]: 1.19 mGy/MBq | Absorbed dose, Liver [2]: 0.19 mGy/MBq | Absorbed dose, Lung [2]: 0.12 mGy/MBq | Absorbed dose, Red bone marrow [2]: 0.05 mGy/MBq | Absorbed dose, Small intestine [2]: 0.05 mGy/MBq | Absorbed dose, Whole body [2]: 0.05 mGy/MBq | AUC [12]: 0.22 % ID · h/mL | CL [12]: 2.17 mL/min/kg | Cmax [12]: 0.018 % ID/mL | T½ α [12]: 0.46 h | T½ β [12]: 19.3 h | Vss [12]: 3.52 L/kg | organ accumulation on planar images [13]: accumulation to the bladder and the gallbladder was increased over time | radioactivity in tumor versus other organs, planar images [14]: radioactivity was higher in the tumor than other organs | Concentration of radioactivity in tumor ([3]; 4 hours later): 11.10 % ID/g | Concentration of radioactivity in tumor ([3]; 24 hours later): 9.62 % ID/g | accumulation in intracranial tumor by planar imaging and ARG [15]: consistent with the tumor was confirmed | radiochemical purity after standing ([4]; immediately after preparation and after standing at room temperature for 24 hours): ≥ 95%
